Experimental data from paper PMC5377379, “Early neurotrophic pharmacotherapy rescues developmental delay and Alzheimer’s-like memory deficits in the Ts65Dn mouse model of Down syndrome” (Scientific Reports, 2017).
Where a SMILES comes first, the peptide text is derived from it. The star is where a group is joined. X1 = NC(=O)C12CC3CC(CC(N*)(C3)C1)C2

B1: full-length human recombinant CNTF protein: full-length human recombinant ciliary neurotrophic factor protein given in clinical trials (protein, UniProt P26441 1-200, looked up)
chain: MAFTEHSPLTPHRRDLCSRSIWLARKIRSDLTALTESYVKHQGLNKNINLDSADGMPVASTDQWSELTEAERLQENLQAYRTFHVLLARLLEDQQVHFTPTEGDFHQAIHTLLLQVAAFAYQIEELMILLEYKIPRNEADGMPINVGDGGLFEKKLWGLKVLQELSQWTVRSIHDLRFISSHQTGIPARGSHYIANNKKM
modifications: full-length

Legend:
[1] = test system: STAT3 phosphorylation at Tyr705; experiment: Western blot of pSTAT3 (Tyr705) in hippocampus of 3-week-old offspring (placental/lactational and BBB delivery); assay type: in vivo, WT and Ts65Dn mice; conditions: inferred from reduced hippocampal pSTAT3 in 3-week-old offspring; 200 nmoles/g diet to dams E8-PND21
Experimental: The studies regarding the plasma stability and stability in gastric and intestinal juices of P021 were done at EVER NeuroPharma GmbH, Unterach, Austria[67]. Briefly, the compound P021 was found stable both in artificial gastric juice (>90%) and in artificial intestinal juice (>95%) as analyzed up to 30 min and 2 hours, respectively. […] It is also worth mentioning that young mice may have consumed some P021 diet directly as young mice start consuming solid food by ~PND16.
After completion of behavioral testing, the 3-week-old mice from the neurobehavioral development study and the ~7-month-old mice from the longitudinal study were anesthetized with an overdose of sodium pentobarbital (125 mg/kg) and were transcardially perfused with 0.1 M phosphate buffered saline (PBS). The mouse brains were extracted immediately after perfusion. The left hemisphere of the brain was dissected into hippocampus, cerebral cortex, cerebellum, and brain stem, immediately frozen on dry ice, and then stored at −80 °C till further processing for biochemical analysis.
The hippocampus from left cerebral hemisphere stored at −80 °C from each mouse was homogenized in a Teflon-glass homogenizer to obtain 10% (w/v) homogenate. […] The blots were developed and quantified as described before. For quantification of different protein levels, each immunoreactive band was normalized to its corresponding GAPDH band.

[2] = test system: Ts65Dn mice; experiment: General examination and monthly body weight, adult mice and mothers; assay type: in vivo
Description: We treated 2–3-month-old pregnant Ts65Dn (Dn) and wild-type (WT) mothers from day 8 (E8) of pregnancy till the weaning of the pups on PND21 with compound P021 (P) in the feed, or as control with vehicle (V) feed (Fig. 1). The offsprings also had access to the P021 or vehicle diet as per mother’s group till PND21. The offsprings from Ts65Dn mothers were genotyped to identify Ts65Dn and WT pups. There were 6 study groups as follows: WT offsprings of WT mothers on vehicle diet (WT-V-WT), WT offsprings of WT mothers on P021 diet (WT-P-WT), WT offsprings of Ts65Dn mothers on vehicle diet (Dn-V-WT), WT offsprings of Ts65Dn mothers on P021 diet (Dn-P-WT), Ts65Dn offsprings of Ts65Dn mothers on vehicle diet (Dn-V-Dn), and Ts65Dn offsprings of Ts65Dn mothers on P021 diet (Dn-P-Dn). In the first phase of the study (Fig. 1b), the newborn pups were evaluated for neurobehavioral development starting on PND1 and carried out until PND21 (or until the appearance of developmental milestone/reflex). After completion of behavioral testing, the 3-week-old mice were sacrificed and brain tissue was collected. The neurobehavioral development component of the study was performed on WT-V-WT (n = 11), WT-P-WT (n = 10), Dn-V-WT (n = 10), Dn-P-WT (n = 9), Dn-V-Dn (n = 11), and Dn-P-Dn (n = 12) mice. In the second phase of the study (Fig. 1c), after prenatal to early postnatal treatment, the offsprings were allowed to grow till 5 months of age, and then general behavioral evaluation and cognitive testing were performed. After weaning, the offsprings received regular mouse chow. After completion of behavioral testing, ~7-month-old animals were sacrificed and brain tissue was collected for biochemical analyses. This longitudinal component of the study was carried out on WT-V-WT (n = 10), WT-P-WT (n = 12), Dn-V-WT (n = 12), Dn-P-WT (n = 11), Dn-V-Dn (n = 13), and Dn-P-Dn (n = 12) mice.
For both the neurobehavioral development in mouse pups and the longitudinal adult mice studies, the physical state and condition of the animals (both mothers and offsprings) were carefully examined throughout the respective study duration. Body weight of mouse pups was recorded daily from PND1 to PND21. Body weight of adult mice was evaluated monthly. Adult mice were not subjected to any behavioral testing till they were ~5 months of age.

[3] = done at EVER NeuroPharma GmbH, cited from earlier work
Experimental: The studies regarding the plasma stability and stability in gastric and intestinal juices of P021 were done at EVER NeuroPharma GmbH, Unterach, Austria[67]. Briefly, the compound P021 was found stable both in artificial gastric juice (>90%) and in artificial intestinal juice (>95%) as analyzed up to 30 min and 2 hours, respectively.

[4] = adult C57Bl/6 mice, commercial service APREDICA; cited from earlier work
[5] = test system: 3xTg-AD mice; conditions: concluded from hippocampal pSTAT3 decrease after oral P021 in diet; cited from earlier work
[6] = cited from earlier work
Description: The compound P021 exerts a neurogenic and neurotrophic effect by inhibiting leukemia inhibitory factor (LIF) signaling pathway and enhancing brain derived neurotrophic factor (BDNF) expression by increasing its transcription.

[7] = administration in clinical trials, humans; cited from earlier work
Description: Overall, we observed a significant group effect in body weight [Fig. 7a; 2-way ANOVA, F(5,410) = 14.28, p < 0.0001] and its change with age [F(4,410) = 100.25, p < 0.0001], however, group × age interaction was not significant [F(20,410) = 0.10, p = 1.0]. Bonferroni’s p ...

Row | Molecule | placental/lactational delivery to offspring brain [1] | general behavioral profile of the adult mice ([2]; adult offspring treated E8-PND21) | body weight, adult Ts65Dn mice ([2]; monthly evaluation, Dn-V-Dn vs. Dn-P-Dn, p > 0.05, treated E8-PND21) | body weight, adult WT mice ([2]; monthly evaluation, WT-V-WT vs. WT-P-WT and Dn-V-WT vs. Dn-P-WT, p > 0.05) | general physical condition of treated mothers ([2]; pregnant mothers on P021 diet, evaluated up to 2-3 months after weaning the pups) | stable in artificial gastric juice ([3]; analyzed up to 30 min) | stable in artificial intestinal juice ([3]; analyzed up to 2 hours) | BBB permeability [4] | oral bioavailability [5] | water solubility [6] | adverse effects in clinical trials [7]
1 | CC(=O)N[C@@H](CC(=O)O)C(=O)NCC(=O)NCC(=O)N[C@@H](CC(C)C)C(=O)NC12CC3CC(C1)CC(C(N)=O)(C3)C2 [Peptide P021] (Ac-DGGL-X1) | delivered across placental barrier during pregnancy and via breast milk during lactation | did not affect the general behavioral profile | did not induce any significant changes in body weight | did not produce any alterations in body weight | did not show any treatment-induced alteration in their general physical condition | > 90% | > 95% | BBB-permeable | orally bioavailable | water-soluble | –
2 | B1 | – | – | – | – | – | – | – | – | – | – | anorexia, skeletal muscle loss, hyperalgesia, severe cramps, and muscle pain
